Data reported in PubChem BioAssay (NCI).
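Assay format: 96-well plates, 48-hour exposure. GI50 is the concentration that inhibits growth by half. TGI is the concentration that stops growth completely.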

Assays:
Experiment in all cases: NCI tumour cell line growth inhibition, 48 h
P388/ADR leukemia = tested on: P388/ADR leukemia
OVCAR-5 ovarian = tested on: OVCAR-5 ovarian
TK-10 renal = tested on: TK-10 renal
SF-268 CNS = tested on: SF-268 CNS
COLO 205 colon = tested on: COLO 205 colon
SNB-19 CNS = tested on: SNB-19 CNS
CAKI-1 renal = tested on: CAKI-1 renal
PC-3 prostate = tested on: PC-3 prostate
MCF7 breast = tested on: MCF7 breast
SNB-78 CNS = tested on: SNB-78 CNS
BT-549 breast = tested on: BT-549 breast
UACC-257 melanoma = tested on: UACC-257 melanoma
MOLT-4 leukemia = tested on: MOLT-4 leukemia
KM12 colon = tested on: KM12 colon
SN12C renal = tested on: SN12C renal
KM20L2 colon = tested on: KM20L2 colon
SF-539 CNS = tested on: SF-539 CNS
DU-145 prostate = tested on: DU-145 prostate
HOP-92 NSCLC = tested on: HOP-92 NSCLC
M19-MEL melanoma = tested on: M19-MEL melanoma
ACHN renal = tested on: ACHN renal
A498 renal = tested on: A498 renal
OVCAR-8 ovarian = tested on: OVCAR-8 ovarian
DLD-1 colon = tested on: DLD-1 colon
NCI-H226 lung = tested on: NCI-H226 lung
NCI-H522 lung = tested on: NCI-H522 lung
HL-60(TB) leukemia = tested on: HL-60(TB) leukemia
U251 CNS = tested on: U251 CNS
XF 498 CNS = tested on: XF 498 CNS
DMS 114 small cell lung = tested on: DMS 114 small cell lung
HT29 colon = tested on: HT29 colon
SF-295 CNS = tested on: SF-295 CNS
OVCAR-3 ovarian = tested on: OVCAR-3 ovarian
SK-MEL-28 melanoma = tested on: SK-MEL-28 melanoma
IGROV1 ovarian = tested on: IGROV1 ovarian
HCT-15 colon = tested on: HCT-15 colon
LOX IMVI melanoma = tested on: LOX IMVI melanoma
P388 leukemia = tested on: P388 leukemia
MDA-N = tested on: MDA-N
M14 melanoma = tested on: M14 melanoma
UO-31 renal = tested on: UO-31 renal
MALME-3M melanoma = tested on: MALME-3M melanoma
UACC-62 melanoma = tested on: UACC-62 melanoma
SK-OV-3 ovarian = tested on: SK-OV-3 ovarian
DMS 273 small cell lung = tested on: DMS 273 small cell lung
OVCAR-4 ovarian = tested on: OVCAR-4 ovarian
A549 NSCLC = tested on: A549 NSCLC
HOP-62 NSCLC = tested on: HOP-62 NSCLC
HCC-2998 colon = tested on: HCC-2998 colon
RPMI-8226 leukemia = tested on: RPMI-8226 leukemia
T-47D breast = tested on: T-47D breast
HOP-18 NSCLC = tested on: HOP-18 NSCLC
NCI/ADR-RES ovarian = tested on: NCI/ADR-RES ovarian
MDA-MB-231 breast = tested on: MDA-MB-231 breast
NCI-H23 lung = tested on: NCI-H23 lung
HCT-116 colon = tested on: HCT-116 colon
K-562 leukemia = tested on: K-562 leukemia
EKVX NSCLC = tested on: EKVX NSCLC
RXF 393 renal = tested on: RXF 393 renal
HS 578T breast = tested on: HS 578T breast
SW-620 colon = tested on: SW-620 colon
MDA-MB-435 = tested on: MDA-MB-435
SK-MEL-2 melanoma = tested on: SK-MEL-2 melanoma
SK-MEL-5 melanoma = tested on: SK-MEL-5 melanoma
SN12K1 renal = tested on: SN12K1 renal
786-0 renal = tested on: 786-0 renal
NCI-H460 lung = tested on: NCI-H460 lung
CCRF-CEM leukemia = tested on: CCRF-CEM leukemia
SNB-75 CNS = tested on: SNB-75 CNS

COC(=O)C12OCC34C(CC5C(C)=C(O)C(=O)CC5(C)C3C(O)C1O)OC(=O)C(OC(=O)C=C(C)C)C24 (centres undefined)
TGI (P388/ADR leukemia): > 500 µM | GI50 (OVCAR-5 ovarian): 0.245 µM | TGI (TK-10 renal): 0.582 µM | GI50 (SF-268 CNS): 0.344 µM | TGI (SF-268 CNS): > 500 µM | TGI (COLO 205 colon): > 500 µM | GI50 (SNB-19 CNS): < 0.215 µM | TGI (SNB-19 CNS): > 500 µM | GI50 (CAKI-1 renal): 0.899 µM | TGI (PC-3 prostate): 0.631 µM | TGI (MCF7 breast): > 500 µM | TGI (SNB-78 CNS): > 500 µM | TGI (BT-549 breast): 0.726 µM | GI50 (UACC-257 melanoma): 0.231 µM | TGI (MOLT-4 leukemia): > 500 µM | GI50 (KM12 colon): < 0.215 µM | TGI (KM12 colon): > 500 µM | GI50 (SN12C renal): 0.32 µM | TGI (KM20L2 colon): > 500 µM | TGI (SF-539 CNS): > 500 µM | TGI (DU-145 prostate): > 8.12 µM | TGI (HOP-92 NSCLC): 494 µM | TGI (M19-MEL melanoma): > 500 µM | TGI (ACHN renal): 0.463 µM | TGI (A498 renal): > 500 µM | GI50 (OVCAR-8 ovarian): 0.222 µM | TGI (DLD-1 colon): > 79.3 µM | GI50 (NCI-H226 lung): < 0.215 µM | GI50 (NCI-H522 lung): < 0.215 µM | TGI (HL-60(TB) leukemia): > 500 µM | TGI (U251 CNS): > 500 µM | TGI (XF 498 CNS): > 476 µM | TGI (DMS 114 small cell lung): > 460 µM | GI50 (HT29 colon): < 0.215 µM | TGI (HT29 colon): > 500 µM | GI50 (SF-295 CNS): 0.232 µM | TGI (OVCAR-3 ovarian): > 500 µM | GI50 (SK-MEL-28 melanoma): < 0.215 µM | TGI (IGROV1 ovarian): > 500 µM | GI50 (HCT-15 colon): 0.456 µM | TGI (LOX IMVI melanoma): > 500 µM | TGI (P388 leukemia): > 500 µM | TGI (MDA-N): 0.481 µM | TGI (M14 melanoma): 0.359 µM | GI50 (UO-31 renal): 0.576 µM | GI50 (MALME-3M melanoma): < 0.215 µM | GI50 (UACC-62 melanoma): < 0.215 µM | TGI (SK-OV-3 ovarian): > 500 µM | TGI (DMS 273 small cell lung): > 500 µM | GI50 (OVCAR-4 ovarian): > 500 µM | TGI (A549 NSCLC): > 500 µM | TGI (HOP-62 NSCLC): > 500 µM | GI50 (HCC-2998 colon): < 0.156 µM | TGI (RPMI-8226 leukemia): > 500 µM | TGI (T-47D breast): 0.0789 µM | TGI (HOP-18 NSCLC): > 500 µM | GI50 (NCI/ADR-RES ovarian): 4.34 µM | TGI (MDA-MB-231 breast): 0.0905 µM | GI50 (NCI-H23 lung): < 0.215 µM | GI50 (HCT-116 colon): 0.226 µM | GI50 (K-562 leukemia): < 0.215 µM | TGI (EKVX NSCLC): > 500 µM | GI50 (RXF 393 renal): 0.231 µM | TGI (HS 578T breast): 2.03 µM | GI50 (SW-620 colon): 0.231 µM | TGI (SW-620 colon): > 500 µM | TGI (MDA-MB-435): 0.905 µM | GI50 (SK-MEL-2 melanoma): < 0.215 µM | GI50 (SK-MEL-5 melanoma): < 0.215 µM | TGI (SN12K1 renal): > 500 µM | TGI (786-0 renal): 0.689 µM | TGI (NCI-H460 lung): > 316 µM

CCN(CC)c1c(C)c(C(=O)OC)nn1-c1ccccc1
TGI (P388/ADR leukemia): > 100 µM | TGI (OVCAR-5 ovarian): > 100 µM | TGI (SF-268 CNS): > 100 µM | TGI (COLO 205 colon): > 100 µM | TGI (SNB-19 CNS): > 100 µM | TGI (CAKI-1 renal): > 86.3 µM | TGI (MCF7 breast): > 100 µM | TGI (SNB-78 CNS): > 100 µM | TGI (UACC-257 melanoma): > 100 µM | TGI (MOLT-4 leukemia): > 100 µM | TGI (KM12 colon): > 100 µM | TGI (SN12C renal): > 100 µM | TGI (KM20L2 colon): > 100 µM | TGI (SF-539 CNS): > 100 µM | TGI (CCRF-CEM leukemia): > 100 µM | TGI (HOP-92 NSCLC): > 100 µM | TGI (M19-MEL melanoma): > 100 µM | TGI (A498 renal): > 100 µM | TGI (OVCAR-8 ovarian): > 100 µM | TGI (DLD-1 colon): > 100 µM | TGI (NCI-H226 lung): > 100 µM | TGI (NCI-H522 lung): > 100 µM | TGI (HL-60(TB) leukemia): > 100 µM | TGI (U251 CNS): > 100 µM | TGI (XF 498 CNS): > 100 µM | TGI (DMS 114 small cell lung): > 100 µM | TGI (HT29 colon): > 100 µM | TGI (SF-295 CNS): > 100 µM | TGI (OVCAR-3 ovarian): > 100 µM | TGI (SK-MEL-28 melanoma): > 100 µM | TGI (IGROV1 ovarian): > 100 µM | TGI (HCT-15 colon): > 100 µM | TGI (LOX IMVI melanoma): > 100 µM | TGI (P388 leukemia): > 100 µM | TGI (UO-31 renal): > 100 µM | TGI (MALME-3M melanoma): > 100 µM | TGI (UACC-62 melanoma): > 100 µM | TGI (SK-OV-3 ovarian): > 100 µM | TGI (DMS 273 small cell lung): > 100 µM | TGI (OVCAR-4 ovarian): > 100 µM | TGI (A549 NSCLC): > 100 µM | TGI (HOP-62 NSCLC): > 100 µM | TGI (HCC-2998 colon): > 100 µM | TGI (RPMI-8226 leukemia): > 100 µM | TGI (HOP-18 NSCLC): > 100 µM | TGI (NCI/ADR-RES ovarian): > 100 µM | TGI (SNB-75 CNS): > 100 µM | TGI (NCI-H23 lung): > 100 µM | TGI (HCT-116 colon): > 100 µM | TGI (K-562 leukemia): > 100 µM | TGI (EKVX NSCLC): > 100 µM | TGI (RXF 393 renal): > 100 µM | TGI (SW-620 colon): > 100 µM | TGI (SK-MEL-2 melanoma): > 100 µM | TGI (SK-MEL-5 melanoma): > 100 µM | TGI (SN12K1 renal): > 100 µM | TGI (NCI-H460 lung): > 100 µM
